Three compounds from patent EP0282292B1, “Improved chelator for anaerobic sealants” (LOCTITE (IRELAND) Ltd., priority 1987, dated 1988) can be followed below.

Data set [1] can be described thus: Stability at 82°C (time to first gellation) of curable formulation spiked with copper. To be noted: for level of chelator able to counteract added copper: 0.5 ppm of added copper; for stability (time to first gellation): 82°C, spiked with copper after one week at room temperature, supernatant only.
The conditions of data set [2]: anaerobic sealant formulation with acidic components.

Read-outs that look alike come from different tables or passages of the source. A value given as a limit tells only on which side of the number the result lay.

`O=C([O-])CN(CCO)CCN(CC(=O)[O-])CC(=O)[O-].[Na+].[Na+].[Na+]` [HEDTA Na₃, N-hydroxyethylenediaminetriacetic acid trisodium salt]: where the note is “1% Maleic Acid in PEGMA”, the “chelator concentration, Sampled after 0.5hr. standing-supernatant liquid taken” value worked out at 110 ppm; the “chelator concentration, Stirred 0.5hr. mixture sampled” value is given as 826 ppm; the “chelator concentration, supernatant after 4 days standing” value is reported as 175 ppm; the “chelator concentration, supernatant after 5 days standing” value was 180 ppm. Also, for the setting “3% Saccharin in PEGMA”, the “chelator concentration, Sampled after 0.5hr. standing-supernatant liquid taken” value is 65 ppm; the “chelator concentration, Stirred 0.5hr. mixture sampled” value was found to be 904 ppm; the “chelator concentration, supernatant after 4 days standing” value stood at 69 ppm; the “chelator concentration, supernatant after 5 days standing” value came out at 75 ppm. Also, in data set [1], the “level of chelator able to counteract added copper” value was 300 ppm and the “stability (time to first gellation)” value is reported as “no loss of chelation efficiency on aging”.
Take `O=C([O-])CN(CCN(CC(=O)[O-])CC(=O)[O-])CC(=O)[O-].[Na+].[Na+].[Na+].[Na+]` [EDTA Na₄, ethylenediaminetetraacetic acid tetrasodium salt]: the “time to precipitation from solution after addition” value in data set [2] is not above 24 h.
On to `CC(O)CN(CCN(CC(C)O)CC(C)O)CC(C)O` (stereo not shown) [EDTPA, tetrakis-(2-hydroxy-propyl)-ethylenediamine], for which, in data set [1], the “level of chelator able to counteract added copper” value is recorded as 300 ppm and the “stability (time to first gellation)” value was “no loss of chelation efficiency on aging”.
